According to patent US8722649B2, “Alpha-chloro and alpha-bromo phosphonate analogs of lysophosphatidic acid and methods of making and using thereof” (University of Utah Research Foundation, priority 2007, dated 2014):
“Also recorded” adds a separate entry of the source. Where two headings read alike, the source gives them in different places. Each block holds one compound with its values, some of them ahead of it.

How the values were obtained:
human LPA3 = biological target: T1, human LPA3 (Homo sapiens, UniProt Q9UBY5); experiment: Ca2+ mobilization assay, LPA3; assay type: cell-based; details: for EC50: RH7777 cells stably expressing LPA3, agonist mode; for LPA3 (Emax): Emax = (maximal efficacy of compound/maximal efficacy of LPA 18:1) × 100; for LPA3 ligand type: agonist/antagonist in words
T1 construct: expressed in transfected cells
T1 sequence (Q9UBY5 1-353): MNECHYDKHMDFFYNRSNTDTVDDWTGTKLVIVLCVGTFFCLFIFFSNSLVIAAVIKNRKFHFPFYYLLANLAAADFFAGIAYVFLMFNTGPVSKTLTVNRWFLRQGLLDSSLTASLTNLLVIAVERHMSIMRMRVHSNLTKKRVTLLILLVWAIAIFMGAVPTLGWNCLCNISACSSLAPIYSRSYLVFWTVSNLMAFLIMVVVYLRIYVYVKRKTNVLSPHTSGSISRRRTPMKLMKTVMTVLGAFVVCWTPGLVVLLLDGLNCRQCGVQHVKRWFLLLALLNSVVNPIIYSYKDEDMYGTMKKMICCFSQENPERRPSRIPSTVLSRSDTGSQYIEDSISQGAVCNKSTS
Experimental: (§1) Receptor activation using Ca^2+ mobilization assay for diastereomers of 1 (also represented as 19b). The rat hepatoma (RH7777) cell lines individually expressing either LPA1, LPA2, LPA3 or LPA5 receptors and Chinese hamster ovary (CHO) cell line were analyzed to examine agonism and antagonism. […] CHO cells stably expressing either vector or LPA4 were kindly gifted from Dr. Shimizu (University of Tokyo, Tokyo, Japan).
Stable transformants of LPA1/2/3 receptors. RH7777 cells stably expressing each receptor were plated onto poly-L-lysine (PLL) (0.1 mg/mL)-coated black-wall clear-bottom 96-well plates (Corning Incorporated Life Sciences, Acton, Mass.) at a density of 5×10^4 cells/well and cultured overnight. The following day, the culture medium was replaced with modified Krebs buffer (120 mM NaCl, 5 mM KCl, 0.62 mM MgSO4, 1.8 mM CaCl2, 10 mM HEPES, 6 mM glucose, pH 7.4), and the cells were serum starved for 6 h. Subsequently, cells were loaded with Fura-2 AM (Invitrogen, Carlsbad, Calif.) for 35 min in modified Krebs buffer containing 2% (v/v) pluronic acid.
After incubating the cells with Fura-2 AM, the cells were rinsed with Krebs buffer and changes in the intracellular Ca^2+ concentration were monitored by determining the ratio of emitted light intensities at 520 nm in response to excitation at 340 and 380 nm using FLEXstation II (Molecular Devices, Sunnyvale, Calif.). Each well was monitored for 80-120 sec. For testing agonist activity of the compounds, the test compounds were added automatically after 15 sec of baseline measurement. […] Each test was performed in quadruplicate. EC50, IC50, and Ki values were calculated by fitting a sigmoid function to data points with the nonlinear curve-fitting feature of KaleidaGraph (Synergy Software, Essex Junction, Vt.).
Receptor activation using Ca^2+ mobilization assay. The assay for mobilization of intracellular Ca^2+ was performed as described. Briefly, rat hepatoma RH7777 cells stably expressing human LPA1, LPA2, or LPA3, and CHO cells stably expressing LPA4, were loaded with Fura-2 AM (Molecular Probes). Using a FLEXStation (Molecular Devices, Sunnyvale, Calif.), changes in intracellular Ca^2+ concentration were monitored. Ligand-induced changes in fluorescence were monitored for 80-120 seconds. Ca^2+ transients were quantified automatically by calculating the difference between maximum and baseline ratio values for each sample. […] Each test was performed in quadruplicate. EC50, IC50, and Ki values were calculated as described. The ligand properties of the compounds were evaluated using Ca^2+ mobilization assay for assessing the activation/inhibition of LPA1, LPA2, and LPA3 expressed in RH7777 cells and LPA4 expressed in CHO cells.

human LPA5 = biological target: T2, human LPA5 (Homo sapiens, UniProt Q9H1C0); experiment: Ca2+ mobilization assay, LPA5 transiently transfected RH7777 cells; assay type: cell-based; details: for Emax at 10 µM: RH7777; for LPA5 ligand type: agonist/antagonist in words
T2 construct: expressed in transfected cells; host or cells: rat hepatoma RH7777 cells, transient (Effectene)
T2 sequence (Q9H1C0 whole entry): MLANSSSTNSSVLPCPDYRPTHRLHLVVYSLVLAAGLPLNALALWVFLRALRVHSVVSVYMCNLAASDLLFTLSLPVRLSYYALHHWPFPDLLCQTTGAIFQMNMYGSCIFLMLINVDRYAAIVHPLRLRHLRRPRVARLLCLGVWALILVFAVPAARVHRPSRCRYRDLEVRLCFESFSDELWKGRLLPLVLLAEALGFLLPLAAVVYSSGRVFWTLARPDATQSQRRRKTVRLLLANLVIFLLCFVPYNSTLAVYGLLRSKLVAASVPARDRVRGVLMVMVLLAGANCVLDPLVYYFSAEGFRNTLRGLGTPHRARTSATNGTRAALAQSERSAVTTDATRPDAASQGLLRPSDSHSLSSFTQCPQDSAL
Experimental: as §1
Transient transfection of LPA5. RH7777 cells in a 10-cm dish at a density of 2×10^6/dish were transfected with 2 μg of plasmid DNA with Effectene (Qiagen, Valencia, Calif.) according to the manufacturer's instructions for 24 h, then replated onto PLL-coated 96-well plates at a density of 5×10^4 cells/well and cultured overnight. The following day, the culture medium was then replaced with modified Krebs buffer, and the cells were serum starved for 4 h. Subsequently, cells were loaded with Fura-2 AM for 30 min in modified Krebs buffer containing 2% (v/v) pluronic acid.
After incubating the cells with Fura-2 AM, the cells were rinsed with Krebs buffer and changes in the intracellular Ca^2+ concentration were monitored by determining the ratio of emitted light intensities at 520 nm in response to excitation at 340 and 380 nm using FLEXstation II (Molecular Devices, Sunnyvale, Calif.). Each well was monitored for 80-120 sec. For testing agonist activity of the compounds, the test compounds were added automatically after 15 sec of baseline measurement. To determine antagonist properties, varying concentrations of the compounds were mixed with a constant concentration of LPA and responses were monitored. Each test was performed in quadruplicate. EC50, IC50, and Ki values were calculated by fitting a sigmoid function to data points with the nonlinear curve-fitting feature of KaleidaGraph (Synergy Software, Essex Junction, Vt.).

[1] = antagonist mode vs 200 nM LPA, read-out: LPA3 (Ki)
[2] = diastereomer study, RH7777 cells, read-out: LPA3 IC50 (Table 2)
[3] = diastereomer study, RH7777 cells, read-out: LPA3 Ki (Table 2)
[4] = transiently transfected RH7777 cells

EC50 (human LPA3): > 30 µM | Ki (human LPA3; [1]): 0.38 µM | inhibition at 30 µM (human LPA3; at 30 μM (200 nM LPA)): 71.3% | IC50 (human LPA3; read-out: LPA3 IC50): 1.16 ± 0.259 µM | Emax at 10 µM (human LPA5): 54% | EC50 (human LPA5; transiently transfected RH7777 cells, NS = non-saturated): 1.28 µM
Structure (SMILES): CCCCCCCCCCCCCCCC(=O)OC[C@@H](O)CC(Br)P(=O)(O)O (mixture of isomers) [Compound 1, [1-Bromo-3(S)-hydroxyl-4-(palmitoyloxy)butyl]-phosphonate]

LPA3 (Emax) (human LPA3): (116 ± 9.5) | EC50 (human LPA3): 0.393 ± 0.089 µM
Structure (SMILES): CCCCCCCCC=CCCCCCCCC(=O)OCC(O)CC(O)P(=O)([O-])O.[Na+] (mixture of isomers) [Compound 22a, reference compound]

EC50 (human LPA3): > 30 µM
Structure (SMILES): CCCCCCCCCCCCCCCC(=O)OCC(O)CC(O)P(=O)([O-])O.[Na+] (mixture of isomers) [Compound 22b, reference compound]

LPA3 ligand type (human LPA3): Antagonist | IC50 (human LPA3; [2]): 4.44 µM | Ki (human LPA3; [3]): 1.83 µM | Emax at 10 µM (human LPA5): 64% | LPA5 ligand type (human LPA5): Partial Agonist
Structure (SMILES): CCCCCCCCCCCCCCCC(=O)OC[C@@H](O)C[C@@H](Br)P(=O)(O)O [Compound 1a]

LPA3 ligand type (human LPA3): Antagonist | IC50 (human LPA3; [2]): 2.09 µM | Ki (human LPA3; [3]): 0.623 µM | IC50 (human LPA5; [4]): 0.977 µM | Ki (human LPA5; [4]): 0.376 µM
Structure (SMILES): CCCCCCCCCCCCCCCC(=O)OC[C@@H](O)C[C@H](Br)P(=O)(O)O [Compound 1b]
LPA5 ligand type (human LPA5): showed inhibition of LPA5; also recorded: Antagonist

Structure (SMILES): CCCCCCCC/C=C\CCCCCCCC(=O)OCC(O)CCP(=O)(O)O (stereo not drawn) [Compound 20a, reference compound]
LPA3 (Emax) (human LPA3): (63.5 ± 4.8) | EC50 (human LPA3): > 1.71 µM

Structure (SMILES): CCCCCCCCCCCCCCCC(=O)OC[C@@H](O)CCP(=O)([O-])O.[Na+] [Compound 20b, reference compound]
EC50 (human LPA3): > 30 µM | IC50 (human LPA3; antagonist mode vs 200 nM LPA, PA = partial antagonist, read-out: LPA3 IC50): 2.56 ± 1.16 µM | Ki (human LPA3; [1]): 0.961 µM

LPA3 (Emax) (human LPA3): (71.2 ± 2.9) | EC50 (human LPA3): 1.53 ± 0.194 µM
Structure (SMILES): CCCCCCCCCCCCCCCC(=O)OCC(O)COP(=O)(O)O (stereo not drawn) [LPA (16:0), reference compound]
